Ten molecules from ChEMBL document CHEMBL1201862, “PubChem BioAssay data set” (2004) can be followed below.

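Where inhibition never reached the appropriate level, the endpoint shown equals the highest concentration tested. Otherwise, values were interpolated linearly from a five-concentration, 48-hour dose response in 96-well plates. GI50: concentration for 50% inhibition of growth.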 Activity calls are given as the source filed them. No stated cut-off is given here; in the data, active = GI50 up to about 1.1 µM and inactive = higher.

Common to all, as to experiment: NCI anticancer screen, dose series, 48 h
In experiment [1] the test system is A549.
The subject of experiment [2] is COLO 205.
Experiment [3] deals with HCC 2998.
The subject of experiment [4] is HL-60.
Experiment [5] deals with HOP-62.
Experiment [6] deals with HOP-92.
Experiment [7] deals with HT-29.
In experiment [8] the test system is IGROV-1.
In experiment [9] the test system is LOX IMVI.
Experiment [10] has as its system M14.
The test system of experiment [11] is NCI-H226.
Experiment [12] concerns NCI/ADR-RES.
The subject of experiment [13] is OVCAR-4.
Experiment [14] has as its system OVCAR-8.
For experiment [15], the system named is RXF 393.
For experiment [16], the system named is SK-MEL-5.
Experiment [17] relates to SK-OV-3.
The subject of experiment [18] is SR.
Experiment [19] has as its system TK-10.
Experiment [20] relates to UO-31.

Regarding `COc1ccc2cc(CNCCCCCCCCCCCCNCc3ccc4cc(OC)ccc4c3)ccc2c1`, the GI50 in experiment [1] was 24.3 µM (inactive); in experiment [2] it was 16.4 µM (inactive); in [3] it was 13.5 µM (inactive); in experiment [4] it was 10.4 µM (inactive); in [5], 19.4 µM (inactive); in experiment [6] it was 21.7 µM (inactive). Besides, the GI50 is 8.49 µM (inactive) in experiment [7]; 15.8 µM (inactive) in experiment [8]; 15 µM (inactive) in [9]; 17.4 µM (inactive) in experiment [10]; 18.5 µM (inactive) in experiment [11]; 19.5 µM (inactive) in [12]. Moreover, the GI50 in experiment [13] was 16.4 µM (inactive); in experiment [14], 15 µM (inactive); in [15], 14.8 µM (inactive); in experiment [16], 22.6 µM (inactive); in [17] it was 18.7 µM (inactive); in [18], 1.79 µM (inactive). Further, the GI50 in experiment [19] was 18.8 µM (inactive); in experiment [20] it was 20.9 µM (inactive).
Take `COC(=O)C1=COC2OC3CC1C2C(C)O3` (centres undefined): the GI50 in [1], in experiment [2], in experiment [3], in experiment [4], in experiment [5] and in [6] was > 100 µM (inactive) throughout. In addition, the GI50 in experiment [7], in experiment [8], in [9], in experiment [10], in experiment [11] and in experiment [12] was > 100 µM (inactive) in each case. Also, the GI50 in experiment [13], in experiment [14], in experiment [15], in experiment [16], in experiment [17] and in experiment [18] was > 100 µM (inactive) throughout. Further, the GI50 in experiment [19] and in [20] was > 100 µM (inactive) in each case.
Turning to `Cn1c2ncccc2n2c(=O)cc(O)cc12`, the GI50 in [1] was > 100 µM (inactive); in [2] it was 53 µM (inactive); in experiment [3], 39.4 µM (inactive); in [5], 39.4 µM (inactive); in experiment [6] it was 18.2 µM (inactive); in experiment [7], 46.6 µM (inactive). For the same molecule, the GI50 in [8] is 12.3 µM (inactive); in experiment [9], 53.6 µM (inactive); in [10], > 100 µM (inactive); in experiment [11], 30.1 µM (inactive); in experiment [12], 81.5 µM (inactive); in experiment [13], 40 µM (inactive). In addition, the GI50 in experiment [14] was > 100 µM (inactive); in experiment [15] it was 21.1 µM (inactive); in experiment [16], > 100 µM (inactive); in [17], > 100 µM (inactive); in experiment [18], > 100 µM (inactive); in [19], 45 µM (inactive). In addition, in [20], the GI50 is 47.2 µM (inactive).
Consider `O=S(=O)(N/C(=N\O)Nc1ccc(Cl)cc1)c1ccccc1`, for which the GI50 in [1] was 21.2 µM (inactive); in experiment [2] it was 20.4 µM (inactive); in [3], 7.1 µM (inactive); in experiment [4], 4.99 µM (inactive); in experiment [5], 44.8 µM (inactive); in experiment [6], 2.94 µM (inactive). Further, the GI50 in experiment [7] was 16.1 µM (inactive); in experiment [8], 10.5 µM (inactive); in experiment [9], 13.4 µM (inactive); in experiment [10], 12.7 µM (inactive); in [11], 33.7 µM (inactive); in [12] it was 12 µM (inactive). Besides, the GI50 in [13] is 2.33 µM (inactive); in experiment [14], 10.2 µM (inactive); in experiment [15] it was 2.77 µM (inactive); in experiment [16], 9.04 µM (inactive); in [17], 27.9 µM (inactive); in [18], 1.15 µM (inactive). Besides, the values for the GI50 in experiment [19] and in experiment [20] were 14 µM (inactive) and 3.23 µM (inactive), respectively.
With `COc1cc2c3c(c4ccc(O)cc4c2cc1OC)[C@@H](O)[C@@H]1CCCN1C3`, the GI50 in experiment [1] is < 0.001 µM (active); in experiment [2], 0.0178 µM (active); in experiment [3], < 0.001 µM (active); in experiment [4], 0.00116 µM (active); in experiment [5], < 0.001 µM (active); in experiment [6], 0.0011 µM (active). The GI50 in experiment [7] was 0.00233 µM (active); in experiment [8] it was < 0.001 µM (active); in [9], < 0.001 µM (active); in [10], < 0.001 µM (active); in [11], < 0.001 µM (active); in [12], 0.00166 µM (active). Moreover, the GI50 in experiment [13] is < 0.001 µM (active); in experiment [14] it was < 0.001 µM (active); in experiment [15] it was 0.00123 µM (active); in experiment [16] it was < 0.001 µM (active); in experiment [17] it was 0.00105 µM (active); in experiment [18], < 0.001 µM (active). Besides, the GI50 was 0.00106 µM (active) in experiment [19] and < 0.001 µM (active) in experiment [20].
`CN1C(=O)C2C=C3CCCCC3=CC2N(C)C1=O` (centres undefined): the GI50 in experiment [1] was > 100 µM (inactive); in experiment [2], > 100 µM (inactive); in [3] it was > 100 µM (inactive); in experiment [4], > 100 µM (inactive); in experiment [5], > 100 µM (inactive); in experiment [6] it was 99.1 µM (inactive). The GI50 in [7], in experiment [8], in [9], in experiment [10], in experiment [11] and in [12] was > 100 µM (inactive) in each case. Further, the GI50 in [13], in experiment [14], in experiment [15], in [16], in [17] and in [18] was > 100 µM (inactive) throughout. The GI50 in [19] and in experiment [20] was > 100 µM (inactive) each time.
On to `O=C1Nc2ccccc2/C1=N/NC(=S)Nc1ccccc1Cl`, for which the GI50 in [1] was 3.58 µM (inactive); in experiment [2], 3.63 µM (inactive); in experiment [3] it was 34.7 µM (inactive); in experiment [4], 4.44 µM (inactive); in [5] it was 11.5 µM (inactive); in experiment [6], 3.7 µM (inactive). For the same molecule, the GI50 in experiment [7] was 5.41 µM (inactive); in experiment [8], 3.33 µM (inactive); in experiment [9], 2.52 µM (inactive); in [10], 1.62 µM (inactive); in experiment [11], 10.1 µM (inactive); in experiment [12], 0.384 µM (active). For the same molecule, the GI50 in experiment [13] is 5.13 µM (inactive); in experiment [14], 2.23 µM (inactive); in [15], 5.2 µM (inactive); in [16], 2.89 µM (inactive); in [17], 10.7 µM (inactive); in [18] it was < 0.01 µM (active). The GI50 in [19] is 2.1 µM (inactive); in experiment [20], 3.32 µM (inactive).
As to `CN1CC(c2ccccc2)N(CCCCN2CC(c3ccccc3)N(C)CC2c2ccccc2)CC1c1ccccc1` (centres undefined), the GI50 in [1] is 33.4 µM (inactive); in [2], 28.8 µM (inactive); in [3] it was 24.4 µM (inactive); in experiment [4], 29.3 µM (inactive); in [5], 28.4 µM (inactive); in experiment [6], 26.8 µM (inactive). The GI50 is 24.4 µM (inactive) in experiment [7]; 45 µM (inactive) in experiment [8]; 14.8 µM (inactive) in [9]; 25.9 µM (inactive) in experiment [10]; 95.7 µM (inactive) in [11]; 53.8 µM (inactive) in [12]. For the same molecule, the GI50 in [13] was 37.7 µM (inactive); in [14], 44.3 µM (inactive); in experiment [15], 21.9 µM (inactive); in [16], 31.7 µM (inactive); in experiment [17], > 100 µM (inactive); in experiment [18] it was 68.5 µM (inactive). The GI50 was 54.1 µM (inactive) in experiment [19] and 57.9 µM (inactive) in [20].
Regarding `C=C(Nc1ccc([N+](=O)[O-])cc1[N+](=O)[O-])c1c/c(=N\NC(N)=S)c2ccccc2o1`, the GI50 in experiment [1] was > 100 µM (inactive); in experiment [2], 33.5 µM (inactive); in [3], 95.9 µM (inactive); in [4] it was 32.8 µM (inactive); in [5], 70 µM (inactive); in experiment [6], 29 µM (inactive). Also, the GI50 in [7] was 87.7 µM (inactive); in experiment [8] it was 36.1 µM (inactive); in [9], > 100 µM (inactive); in experiment [10], > 100 µM (inactive); in experiment [11], 28.2 µM (inactive); in [12] it was 40.9 µM (inactive). Besides, the GI50 was 49 µM (inactive) in experiment [13]; 41.7 µM (inactive) in experiment [14]; 60.3 µM (inactive) in experiment [15]; 37.7 µM (inactive) in [16]; 35.7 µM (inactive) in experiment [17]; 16.9 µM (inactive) in experiment [18]. Moreover, the GI50 in experiment [19] is > 100 µM (inactive); in [20], 29.1 µM (inactive).
As to `Cc1ccc(S(=O)(=O)C2=Cc3ccc(C(F)(F)F)cc3C2(O)c2cccc(C(F)(F)F)c2)cc1` (centres undefined), the GI50 was 2.99 µM (inactive) in experiment [1]; 1.79 µM (inactive) in experiment [2]; 2.43 µM (inactive) in experiment [3]; 1.65 µM (inactive) in experiment [4]; 7.35 µM (inactive) in [5]; 1.88 µM (inactive) in experiment [6]. For the same molecule, the GI50 in experiment [7] is 2.19 µM (inactive); in [8], 2.64 µM (inactive); in experiment [9] it was 1.91 µM (inactive); in experiment [10] it was 2.4 µM (inactive); in [11], 2.15 µM (inactive); in experiment [12] it was 2.71 µM (inactive). In addition, the GI50 in experiment [13] is 1.85 µM (inactive); in experiment [14], 1.41 µM (inactive); in experiment [15], 2.23 µM (inactive); in experiment [16], 1.88 µM (inactive); in experiment [17] it was 10.2 µM (inactive); in experiment [18] it was 2.43 µM (inactive). Moreover, the GI50 in experiment [19] was 2.47 µM (inactive); in experiment [20] it was 2.25 µM (inactive).
